These results are taken from paper PMC8704709, “Improved Anticancer Activities of a New Pentafluorothio-Substituted Vorinostat-Type Histone Deacetylase Inhibitor” (Pharmaceuticals, 2021).

One data set has as its system SMZ1 cells. Description: IC50 by Annexin-V/7AAD dual staining, flow cytometry. The data set is classed as cell-based. Particulars: Homo sapiens, as determined after 48 h, means ± SEM, n ≥ 3, read-out: Growth inhibitory activity IC50, SMZ1. As for the experimental part:
Stock solutions (10 mM) prepared by dissolution in DMSO were stored at −20 °C. Working solutions were always freshly prepared before each experiment by dilution of stock solution with medium. The final DMSO concentration never exceeded 0.25%. Treatment-induced changes in cell number were determined by crystal violet (N-hexamethylpararosaniline from Sigma Aldrich) staining. 1000 cells/well (DU145) or 1500 cells/well (Hep-G2) were seeded in 96-well plates and maintained for adherence in an incubator (37 °C, 5% CO2, humidified atmosphere) for 48 h prior to the beginning of the treatment. […] Thereafter, the cells were fixed with 1% glutaraldehyde and stained with 0.1% crystal violet. The unbound dye was removed by rinsing with water. Bound crystal violet was solubilized with 0.2% Triton X-100 (Sigma-Aldrich). Light extinction of crystal violet, which increases linearly with the cell number, was analyzed at 570 nm using an ELISA-Reader (Dynex Technologies, Denkendorf, Germany). For T-cell leukemia/lymphoma cell lines apoptosis was determined using dual staining for Annexin-V and 7AAD via flow cytometry.
In general terms: Flow cytometry measures light scatter and fluorescence of single cells or particles in a stream.

In data set [1] the test system is DU145 cells. Briefly: Unspecific cytotoxicity (LDH release). The format is cell-based, human. Particulars: 1–10 µM, 3 and 24 h. The protocol: To exclude unspecific cytotoxicity as the driving mode of action for antiproliferative effects, the release of lactate dehydrogenase (LDH) from DU145 cells was determined after 3 h and 24 h of treatment using the Cytotoxicity Detection Kit PLUS LDH (Roche Diagnostics GmbH, Mannheim, Germany). The assay was performed as described earlier. Cytotoxicity was determined by subtracting the percentage of LDH release into the supernatant under control conditions of those from treated samples. Measurements were performed in duplicate in n = 3 independent experiments and mean percentage changes ± SEM as compared to controls are shown.
A general note: Release of lactate dehydrogenase indicates damage to the cell membrane.

The subject of data set [2] is Hep-G2 cells. Description: Unspecific cytotoxicity (LDH release). The following applies: 1–10 µM, 3 and 24 h. The format is cell-based, human.
For data set [3], the system named is caspase-3 activity in DU145 cells. Briefly: Apoptosis-specific caspase-3 activation (AC-DEVD-AMC cleavage). The data set is classed as cell-based, human. The following applies: 24 h treatment, 1–10 µM. As for the experimental part: (§1) Changes in caspase-3 activity were measured by the cleavage of the fluorogenic substrate AC-DEVD-AMC (EMD Millipore, Billerica, MA, USA), as described previously. […] Subsequently, the lysates were incubated for 1 h at 37 °C with a substrate solution containing 20 μg/mL AC-DEVD-AMC, 20 mM HEPES, 10% glycerol and 2 mM DTT at pH 7.5.

The subject of data set [4] is caspase-3 activity in Hep-G2 cells. The description is as above. The format is cell-based, human. Particulars: 24 h treatment, 1–10 µM. The protocol: as §1
Data set [5] relates to DU145 cells. Description: Cytosolic ROS formation (CellROX Orange fluorescence microscopy). The format is cell-based, human. Particulars: 6–24 h. The protocol:
(§2) Untreated cells incubated with 1.6 mM H2O2 for 30 min served as positive controls. CellROX® Orange reagent (1 µM) was applied, when adding the test compounds. Formation of ROS was measured after 3 h, 6 h, 12 h (not shown) and 24 h using ZOE™ Fluorescent Cell Imager (Biorad, Munich, Germany). n = 3 independent experiments performed in triplicate for each condition.

The test system of data set [6] is Hep-G2 cells. Described as above. The format is cell-based, human. The following applies: 6–24 h. As for the experimental part: as §2
In data set [7] the test system is DU145 cells. Briefly: Western blot in DU145 cells (acetyl-H3, PARP, EGFR, P-mTOR). Particulars: 24 h. The data set is classed as cell-based, human. As for the experimental part:
(§3) Western blots were performed as described earlier. Cells were seeded in 100 mm petri dishes, grown to almost confluency, treated for 24 h, washed and frozen, followed by lysis with RIPA Buffer, added with one cOmplete™ Mini protease Inhibitor tablet/10 mL (Roche), and quantification with Pierce^TM BCA Protein Assay Kit (Thermo Fisher Scientific). Thereafter protein levels were normalized to untreated controls so equal protein loading of 20 µg/lane. Laemmli Buffer and β-mercaptoethanol were added before probes were desaturated at 96 °C for 10 min. First, 7.5% or 12% SDS gels (Biorad, Munich, Germany) were loaded with proteins and electrophoresis was done. Thereafter, proteins were transferred to activated polyvinylidene difluoride membranes (PVDF) by electroblotting. Finally, the membranes were blocked with 1% BSA and incubated with primary antibodies over night at 4 °C.
(§4) Blots were washed three times with 1% TBS-Tween and incubated with anti-mouse or anti-rabbit peroxidase-coupled anti-IgG secondary antibodies (1:5000–1:10,000) at room temperature for 60 min. Subsequently, antibody bondage was illustrated using Clarity and Clarity Max ECL Western Blotting Substrates (Biorad, Munich, Germany) for detection and Celvin-S developer (Biostep, software SnapAndGo Vs 1.8.1) for development. […] Values were normalized to β-actin expression, which served as a loading control and compared to untreated control expressions which was set at 1. The mean ± SEM of the relative values to control are illustrated with Graph Pad Prism 8.
A general note: Immunoblotting shows a protein as a band on a membrane.

Data set [8] deals with Hep-G2 cells. Description: Western blot in Hep-G2 cells (acetyl-H3, Apaf-1, Bcl-2). The data set is classed as cell-based, human. Particulars: 24 h. The protocol:
as §3, with “°C. […] Only the Jurkat cells had already a high level of α-tubulin in untreated cells and, thus, drug-induced changes were not detectable in these cells.” for “°C.”
as §4

Regarding `O=C(CCCCCCC(=O)Nc1ccccc1)NO` [SAHA, suberoylanilide hydroxamic acid, reference compound], in the data set with SMZ1 cells, the IC50 amounted to 2870 ± 330 nM. Moreover, the “LDH release (unspecific cytotoxicity)” value in the data set with DU145 cells [1] and in the data set on Hep-G2 cells [2] was “no relevant induction of unspecific cytotoxicity” throughout. Besides, the caspase-3 activation entry in [3] and in data set [4] was “comparable caspase-3 inductions” in each case. Also, the “cytosolic ROS formation” value in the data set on DU145 cells [5] and in the data set on Hep-G2 cells [6] was “much weaker ROS increase” throughout. Besides, in the data set with DU145 cells [7], the EGFR protein expression entry was “pronounced and significant suppression in the expression of the EGFR”. Besides, the “acetylated histone H3 level” value in the data set on DU145 cells [7] and in the data set on Hep-G2 cells [8] was “dose-dependent rise of H3 acetylation” in each case.

Broadly, the IC50 is the concentration that gives 50% inhibition.
